According to patent US6624174B2, “2-amino-nicotinamide derivatives and their use as VEGF-receptor tyrosine kinase inhibitors” (Novartis AG, priority 2000, dated 2003):

In the case of `O=C(Nc1cccc(C(F)(F)F)c1)c1cccnc1NCc1cccc(O)c1` [Example 34, 2-[(3-Hydroxyphenyl)methyl]amino-N-[3-(trifluoromethyl)phenyl]-3-pyridinecarboxamide], the melting point is reported as 143 to 146 °C.
In the case of `CCCc1ccc(NC(=O)c2cccnc2NCc2ccncc2)cc1` [Example 9, 2-[(4-Pyridyl)methylamino]-N-[4-(n-propyl)phenyl]-3-pyridinecarboxamide], the melting point is reported as 147 to 149 °C.
`CC(C)(C)[C@H]1CC[C@@H](NC(=O)c2cccnc2NCc2ccncc2)CC1` [Example 23, 2-[(4-Pyridyl)methylamino]-N-(cis-4-tert-butyl-cyclohexyl)-3-pyridinecarboxamide] gave a melting point of 103 to 106 °C.
For `O=C(Nc1cccc(C(F)(F)F)c1F)c1cccnc1NCc1ccc(=O)[nH]c1` [Example 36, 2-[(Pyridin-2(1H)-on-5-yl)methyl]amino-N-[2-fluoro-3-(trifluoromethyl)phenyl]-3-pyridinecarboxamide], the melting point was 219 to 222 °C.
With `O=C(Nc1ccc2[nH]ncc2c1)c1cccnc1NCc1ccncc1` [Example 13, 2-[(4-Pyridyl)methylamino]-N-(5-indazolyl)-3-pyridinecarboxamide] the melting point was 225 to 230 °C.
For `O=C(Nc1ccc(Br)c(C(F)(F)F)c1)c1cccnc1NCc1ccncc1` [Example 20, 2-[(4-Pyridyl)methylamino]-N-[4-bromo-3-(trifluoromethyl)phenyl]-3-pyridinecarboxamide], the melting point was 164 to 165 °C.
Compound `O=C(Nc1cc(F)cc(C(F)(F)F)c1)c1cccnc1NCc1ccncc1` [Example 7, 2-[(4-Pyridyl)methylamino]-N-[3-fluoro-5-(trifluoromethyl)phenyl]-3-pyridinecarboxamide] has a melting point of 196 °C.
Compound `O=C(Nc1cccc(C(F)(F)F)c1F)c1cccnc1NCc1ccncc1` [Example 19, 2-[(4-Pyridyl)methylamino]-N-[2-fluoro-3-(trifluoromethyl)phenyl]-3-pyridinecarboxamide] has a melting point of 137 to 140 °C.
In the case of `CCCCCc1ccc(NC(=O)c2cccnc2NCc2ccncc2)cc1` [Example 11, 2-[(4-Pyridyl)methylamino]-N-[4-(n-pentyl)phenyl]-3-pyridinecarboxamide], the melting point is reported as 106 to 107 °C.
In the case of `Cc1ccc(C(F)(F)F)cc1NC(=O)c1cccnc1NCc1ccncc1` [Example 22, 2-[(4-Pyridyl)methylamino]-N-[2-methyl-5-(trifluoromethyl)phenyl]-3-pyridinecarboxamide], the melting point is reported as 155 to 156 °C.
Compound `COc1ccc(CNc2ncccc2C(=O)Nc2cccc(C(F)(F)F)c2)cn1.Cl.Cl` has a melting point of 185 °C.
In the case of `CCCCc1ccc(NC(=O)c2cccnc2NCc2ccncc2)cc1` [Example 10, 2-[(4-Pyridyl)methylamino]-N-[4-(n-butyl)phenyl)3-pyridinecarboxamide], the melting point is reported as 107 to 108 °C.
With `CC#Cc1ccc(NC(=O)c2cccnc2NCc2ccc(=O)[nH]c2)cc1C(F)(F)F` [Example 32, 2-[(Pyridin-2(1H)-on-5-yl)methyl]amino-N-[4-propynyl-3-(trifluoromethyl)phenyl]-3-pyridinecarboxamide] the melting point was 211 to 218 °C.
Work on `COc1ccc(CNc2ncccc2C(=O)Nc2ccc(Br)c(C(F)(F)F)c2)cn1` [Example 24, 2-[(6-Methoxypyrid-3-yl)methylamino]-N-[4-bromo-3-(trifluoromethyl)phenyl]-3-pyridinecarboxamide] yielded a melting point of 123 to 125 °C.
`O=C(Nc1cc2ccccc2cn1)c1cccnc1NCc1ccncc1` [Example 14, 2-[(4-Pyridyl)methylamino]-N-(3-isoquinolinyl)-3-pyridinecarboxamide] showed a melting point of 191 to 195 °C.
`O=C(Nc1ccc(C(F)(F)F)c(C(F)(F)F)c1)c1cccnc1NCc1ccncc1` [Example 6, 2-[(4-Pyridyl)methylamino]-N-[3,4-bis(trifluoromethyl)phenyl]-3-pyridinecarboxamide] showed a melting point of 194 to 196 °C.
`CCCc1ccc(NC(=O)c2cccnc2NCc2ccncc2)cc1C(F)(F)F` [Example 40, 2-[(4-Pyridyl)methyl]amino-N-[4-(n-propyl)-3-(trifluoromethyl)phenyl]-3-pyridinecarboxamide] gave a melting point of 147 to 149 °C.
Work on `CC#Cc1ccc(NC(=O)c2cccnc2NCc2ccncc2)cc1C(F)(F)F` [Example 31, 2-[(4-Pyridyl)methylamino]-N-[4-propynyl-3-(trifluoromethyl)phenyl]3-pyridinecarboxamide] yielded a melting point of 213 to 217 °C.
In the case of `CCCc1ccc(NC(=O)c2cccnc2NCc2ccc(=O)[nH]c2)cc1C(F)(F)F` [Example 38, 2-[(Pyridin-2(1H)-on-5-yl)methyl]amino-N-[4-propyl-3-(trifluoromethyl)phenyl]-3-pyridinecarboxamide], the melting point is reported as 220 to 224 °C.
For `CC#Cc1ccc(NC(=O)c2cccnc2NCc2ccncc2)cc1` [Example 12, 2-[(4-Pyridyl)methylamino]-N-[4-(1-propynyl)phenyl]-3-pyridinecarboxamide], the melting point was 216 to 221 °C.
For `CC(C)(C)[C@H]1CC[C@H](NC(=O)c2cccnc2NCc2ccncc2)CC1` [Example 8, 2-[(4-Pyridyl)methylamino]-N-(trans-4-tert-butyl-cyclohexyl)-3-pyridinecarboxamide], the melting point was 165 to 167 °C.
Work on `Cc1c(NC(=O)c2cccnc2NCc2ccncc2)cccc1C(F)(F)F` [Example 21, 2-[(4-Pyridyl)methylamino]-N-[2-methyl-3-(trifluoromethyl)phenyl]-3-pyridinecarboxamide] yielded a melting point of 146 to 147 °C.
